Patent US8895568B2, “Compositions comprising substituted pteridines as agrochemicals” (Dow AgroSciences LLC, priority 2009, dated 2014)

Columns and labels:
Format in all cases: in vivo
Cochliobolus sativus = test: Spot Blotch of Wheat (COCHSA), foliar spray, percent disease control; conditions: Bipolaris sorokiniana, foliar; read-out: COCHSA percent control
[1] = tested on: Pseudoperonospora cubensis; test: Cucumber Downy Mildew (PSPECU), foliar spray, percent disease control; conditions: foliar, read-out: PSPECU percent control
[2] = tested on: DROSME, AEDSAE, LAPHEG, or HELIVI; test: Insecticidal activity, active if any of DROSME, AEDSAE, LAPHEG or HELIVI was controlled at 80% or more; conditions: read-out: >80% mortality on any insect species @ 4000 ppm
Colletotricum lagenarium = test: Cucumber Anthracnose (COLLLA), foliar spray, percent disease control; conditions: foliar

SMILES: Fc1cc(F)c(Oc2ccc(CCNc3ncnc4nccnc34)cc2)nc1F [Compound 150]
- pest or weed control at 200 µg/mL (Cochliobolus sativus): 0 to 49%
- pest or weed control at 200 µg/mL [1]: 80 to 100%
- pest or weed control at 4000 ppm [2]: > 80%
- pest or weed control at 200 µg/mL (Colletotricum lagenarium): 0 to 49%

SMILES: Cc1cc(Oc2cc(C(F)(F)F)ccn2)c(C)cc1CCNc1ncnc2nccnc12 [Compound 152]
- pest or weed control at 200 µg/mL (Cochliobolus sativus): 0 to 49%
- pest or weed control at 200 µg/mL [1]: 80 to 100%
- pest or weed control at 4000 ppm [2]: > 80%
- pest or weed control at 200 µg/mL (Colletotricum lagenarium): 0 to 49%

SMILES: CCOc1cc(CCNc2ncnc3nccnc23)ccc1Oc1cc(C(F)(F)F)ccn1 [Compound 153]
- pest or weed control at 200 µg/mL (Cochliobolus sativus): 0 to 49%
- pest or weed control at 200 µg/mL [1]: 80 to 100%
- pest or weed control at 4000 ppm [2]: > 80%
- pest or weed control at 200 µg/mL (Colletotricum lagenarium): 0 to 49%

SMILES: Cc1cc(CCNc2ncnc3nccnc23)ccc1Oc1cc(C#N)ccn1 [Compound 155]
- pest or weed control at 200 µg/mL (Cochliobolus sativus): 0 to 49%
- pest or weed control at 200 µg/mL [1]: 80 to 100%
- pest or weed control at 4000 ppm [2]: > 80%
- pest or weed control at 200 µg/mL (Colletotricum lagenarium): 50 to 79%

SMILES: Cc1cc(Oc2ccc(C(F)(F)F)cn2)c(C)cc1CCNc1ncnc2nccnc12 [Compound 156]
- pest or weed control at 200 µg/mL (Cochliobolus sativus): 0 to 49%
- pest or weed control at 200 µg/mL [1]: 80 to 100%
- pest or weed control at 4000 ppm [2]: > 80%
- pest or weed control at 200 µg/mL (Colletotricum lagenarium): 0 to 49%

SMILES: CCOc1cc(CCNc2ncnc3nccnc23)ccc1Oc1ccc(C(F)(F)F)cn1 [Compound 157]
- pest or weed control at 200 µg/mL (Cochliobolus sativus): 0 to 49%
- pest or weed control at 200 µg/mL [1]: 80 to 100%
- pest or weed control at 4000 ppm [2]: > 80%
- pest or weed control at 200 µg/mL (Colletotricum lagenarium): 0 to 49%

SMILES: Cc1nc2ncnc(NCCc3ccc(Oc4cc(C(F)(F)F)ccn4)cc3)c2nc1C [Compound 162]
- pest or weed control at 200 µg/mL (Cochliobolus sativus): 0 to 49%
- pest or weed control at 200 µg/mL [1]: 80 to 100%
- pest or weed control at 4000 ppm [2]: > 80%
- pest or weed control at 200 µg/mL (Colletotricum lagenarium): 0 to 49%

SMILES: Cc1nc2ncnc(NCCc3ccc(Oc4ncc(C(F)(F)F)cc4F)cc3)c2nc1C [Compound 163]
- pest or weed control at 200 µg/mL (Cochliobolus sativus): 0 to 49%
- pest or weed control at 200 µg/mL [1]: 80 to 100%
- pest or weed control at 4000 ppm [2]: > 80%
- pest or weed control at 200 µg/mL (Colletotricum lagenarium): 80 to 100%

SMILES: CC(C)OC(=O)c1cnc(Oc2ccc(CCNc3ncnc4nccnc34)cc2)c(Cl)c1 [Compound 164]
- pest or weed control at 200 µg/mL (Cochliobolus sativus): 0 to 49%
- pest or weed control at 200 µg/mL [1]: 0 to 49%
- pest or weed control at 4000 ppm [2]: > 80%
- pest or weed control at 200 µg/mL (Colletotricum lagenarium): 0 to 49%

SMILES: CC(C)(C)OC(=O)c1ccc(Oc2ccc(CCNc3ncnc4nccnc34)cc2)nc1 [Compound 165]
- pest or weed control at 200 µg/mL (Cochliobolus sativus): 0 to 49%
- pest or weed control at 200 µg/mL [1]: 80 to 100%
- pest or weed control at 4000 ppm [2]: > 80%
- pest or weed control at 200 µg/mL (Colletotricum lagenarium): 0 to 49%

SMILES: Cc1cc(CCNc2ncnc3nccnc23)ccc1Oc1c(F)cnc(C(F)(F)F)c1F [Compound 166]
- pest or weed control at 200 µg/mL (Cochliobolus sativus): 0 to 49%
- pest or weed control at 200 µg/mL [1]: 80 to 100%
- pest or weed control at 4000 ppm [2]: > 80%
- pest or weed control at 200 µg/mL (Colletotricum lagenarium): 50 to 79%

SMILES: Cc1cc(CCNc2ncnc3nccnc23)ccc1Oc1cc(C(C)(F)F)ccn1 [Compound 169]
- pest or weed control at 200 µg/mL (Cochliobolus sativus): 0 to 49%
- pest or weed control at 200 µg/mL [1]: 80 to 100%
- pest or weed control at 4000 ppm [2]: > 80%
- pest or weed control at 200 µg/mL (Colletotricum lagenarium): 50 to 79%

SMILES: COc1cc(CCNc2ncnc3nccnc23)ccc1Oc1cc(C(C)(F)F)ccn1 [Compound 170, (2-{4-[4-(1,1-difluoroethyl)-pyridin-2-yloxy]-3-methoxyphenyl}-ethyl)-pteridin-4-yl-amine]
- pest or weed control at 200 µg/mL (Cochliobolus sativus): 0 to 49%
- pest or weed control at 200 µg/mL [1]: 80 to 100%
- pest or weed control at 4000 ppm [2]: > 80%
- pest or weed control at 200 µg/mL (Colletotricum lagenarium): 0 to 49%

SMILES: FC(F)(F)c1ccnc(Oc2ccc(CCNc3ncnc4nccnc34)cc2Cl)c1 [Compound 187]
- pest or weed control at 200 µg/mL (Cochliobolus sativus): 0 to 49%
- pest or weed control at 200 µg/mL [1]: 80 to 100%
- pest or weed control at 4000 ppm [2]: > 80%
- pest or weed control at 200 µg/mL (Colletotricum lagenarium): 80 to 100%

SMILES: CCCOc1cc(CCNc2ncnc3nccnc23)ccc1Oc1cc(C(F)(F)F)ccn1 [Compound 188]
- pest or weed control at 200 µg/mL (Cochliobolus sativus): 0 to 49%
- pest or weed control at 200 µg/mL [1]: 80 to 100%
- pest or weed control at 4000 ppm [2]: > 80%
- pest or weed control at 200 µg/mL (Colletotricum lagenarium): 80 to 100%

SMILES: CC(=O)Oc1cc(CCNc2ncnc3nccnc23)ccc1Oc1cc(C(F)(F)F)ccn1 [Compound 190, Acetic acid 5-[2-(pteridin-4-ylamino)-ethyl]-2-(4-trifluoromethylpyridin-2-yloxy)-phenyl ester]
- pest or weed control at 200 µg/mL (Cochliobolus sativus): 0 to 49%
- pest or weed control at 200 µg/mL [1]: 0 to 49%
- pest or weed control at 4000 ppm [2]: > 80%
- pest or weed control at 200 µg/mL (Colletotricum lagenarium): 0 to 49%

SMILES: CC(C)(C)OC(=O)c1ccnc(Oc2ccc(CCNc3ncnc4nccnc34)cc2)c1 [Compound 192]
- pest or weed control at 200 µg/mL (Cochliobolus sativus): 0 to 49%
- pest or weed control at 200 µg/mL [1]: 80 to 100%
- pest or weed control at 4000 ppm [2]: > 80%
- pest or weed control at 200 µg/mL (Colletotricum lagenarium): 80 to 100%

SMILES: Cc1cc(Oc2cc(C(C)(F)F)ccn2)c(C)cc1CCNc1ncnc2nccnc12 [Compound 194]
- pest or weed control at 200 µg/mL (Cochliobolus sativus): 0 to 49%
- pest or weed control at 200 µg/mL [1]: 80 to 100%
- pest or weed control at 4000 ppm [2]: > 80%
- pest or weed control at 200 µg/mL (Colletotricum lagenarium): 80 to 100%

SMILES: COc1cc(C(F)(F)F)cc(Oc2ccc(CCNc3ncnc4nc(C)c(C)nc34)cc2)n1 [Compound 198]
- pest or weed control at 200 µg/mL (Cochliobolus sativus): 0 to 49%
- pest or weed control at 200 µg/mL [1]: 0 to 49%
- pest or weed control at 4000 ppm [2]: > 80%
- pest or weed control at 200 µg/mL (Colletotricum lagenarium): 0 to 49%
